Experimental data as given in EP0049683A2, “Imidazo-rifamycines, process for their preparation, pharmaceutical preparations containing them and their use” (CIBA-GEIGY AG, priority 1980, dated 1982).
Values after ≈ are worked out from the molar mass of the structure shown.

Experiments:
Format in all cases: cell-based
Escherichia coli 2018 = test: Agar dilution MIC in DST agar (Ericsson and Sherris); conditions: for MIC Esch. 2018: in vitro; for MIC: Escherichia coli, 2018, in vitro, read-out: MIC Esch. 2018
How it was run: (§1)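 Growth inhibition on compound-containing agar determined the minimum inhibitory concentration, reported as µg/ml.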

Escherichia coli 205 = test: as above; conditions: for MIC Esch. 205: in vitro; for MIC: Escherichia coli, 205, in vitro, read-out: MIC Esch. 205
How it was run: as §1

Proteus morganii 1518 = test: as above; conditions: for MIC Prot. 1518: in vitro; for MIC: Morganella morganii, 1518, in vitro, read-out: MIC Prot. 1518
How it was run: as §1

Proteus morganii 2359 = test: as above; conditions: for MIC Prot. 2359: in vitro; for MIC: Morganella morganii, 2359, in vitro, read-out: MIC Prot. 2359
How it was run: as §1

[1] = system: Pseudomonas aeruginosa K 799/61; test: as above; conditions: for MIC Pseu. 799: in vitro, agar dilution, DST agar; for MIC: Pseudomonas aeruginosa, K799/61, read-out: MIC Pseu. 799
How it was run: as §1

[2] = system: Salmonella Typhimurium 277; test: as above; conditions: in vitro; for MIC: Salmonella enterica, TYPHIMURIUM, read-out: MIC Salm. 277
How it was run: as §1

[3] = system: Staphylococcus aureus 10B; test: as above; conditions: in vitro; for MIC: Staphylococcus aureus, 10B, read-out: MIC Staph. 10B
How it was run: as §1

[4] = system: Staphylococcus aureus 2999; test: as above; conditions: for MIC Staph. 2999: in vitro; for MIC: Staphylococcus aureus, 2999, in vitro, read-out: MIC Staph. 2999
How it was run: as §1

Staphylococcus aureus = test: In vitro antibacterial activity against gram-positive cocci; conditions: at (at or below) the lowest limit of the tested concentration range, 0,005 y/ml
Text: (§2) Die neuen erfindungsgemässen Verbindungen der Formel I zeichnen sich vor allem durch ihre wertvollen pharmakologischen Eigenschaften aus: so besitzen sie gemäss den Resultaten in vitro antibiotische, insbesondere antibakterielle Eigenschaften, wie z.B. einerseits gegen grammpositive Kokken, wie Staphylococcus aureus, (im getesteten Konzentrationsbereich 0,005 bis 128 y/ml),andererseits gegen grammnegative Stäbchenbakterien, wie Enterobacteriaceae, z.B. Escherichia coli, Pseudomonas aeruginosa und Proteus morganii (im getesteten Konzentrationsbereich von 1 bis 64 y/ml), sowie gegen Mycobacterium tuberculosis (im getesteten Konzentrationsbereich von 0,48 bis 1,9 y/ml). […] (Für die Testresultate siehe auch Tabelle -1.)
(§3) Auch die neuen erfindungsgemässen Verbindungen der Formeln V und VI zeichnen sich durch analoge wertvolle pharmakologische Eigenschaften aus, d.h. sie besitzen gemäss den Resultaten in vitro antibiotische, insbesondere antibakterielle Eigenschaften, die sich bezüglich des Anwendungsbereichs sowie der getesteten effektiven Konzentrationen den Verbindungen der Formel I praktisch gleichen. […] (Für die Testresultate siehe auch Tabelle 2.)

[5] = system: Enterobacteriaceae, z.B. Escherichia coli, Pseudomonas aeruginosa und Proteus morganii; test: In vitro antibacterial activity against gram-negative rods; conditions: within the stated concentration range, 1 bis 64 y/ml
Text: as §2, §3

Row | Molecule | MIC Esch. 2018 (Escherichia coli 2018) [µg/mL] | MIC Esch. 205 (Escherichia coli 205) [µg/mL] | MIC Prot. 1518 (Proteus morganii 1518) [µg/mL] | MIC Prot. 2359 (Proteus morganii 2359) [µg/mL] | MIC Pseu. 799 [1] [µg/mL] | MIC Salm. 277 [2] [µg/mL] | MIC Staph. 10B [3] [µg/mL] | MIC Staph. 2999 [4] [µg/mL] | MIC (Escherichia coli 2018) [µg/mL] | MIC (Escherichia coli 205) [µg/mL] | MIC (Proteus morganii 1518) [µg/mL] | MIC (Proteus morganii 2359) [µg/mL] | MIC [1] [µg/mL] | MIC [2] [µg/mL] | MIC [3] [µg/mL] | MIC [4] [ng/mL] | Hemmwirkung auf Staphylococcus aureus (Staphylococcus aureus) | Hemmung der Enterobacterien [5]
1 | 4-(4-Isobutyrylpiperazinyl)-imidazolo[4,5-c]rifamycin SV [Verbindung 70] | 32 | 32 | 32 | 32 | 128 | 128 | 0.02 | 0.02 |  |  |  |  |  |  |  |  |  | 
2 | 4-(4-Isobutyl-perhydrct-1,4-diazepinyl)-imidazolo(4,5-c]-rifamycin SV [Verbindung 77] | 8 | 8 | 8 | 8 | 8 | 32 | 0.01 | 0.01 |  |  |  |  |  |  |  |  |  | 
3 | C=CCCN1CCN(c2nc3c([nH]2)c2c(O)c4c(O)c(C)c5c(c43)C(=O)[C@@](C)(O/C=C/[C@H](OC)[C@@H](C)[C@@H](OC(C)=O)[C@H](C)[C@H](O)[C@H](C)[C@@H](O)[C@@H](C)/C=C/C=C(/C)C(=O)N2)O5)CC1 [Verbindung 45, 4-[4-(3-Butenyl)-piperazinyl]-imidazolo[4,5-c]rifamycin SV] |  |  |  |  |  |  |  |  | 1 (≈ 1.16 µM) | 8 (≈ 9.3 µM) | 8 (≈ 9.3 µM) | 8 (≈ 9.3 µM) | 32 (≈ 37.2 µM) | 32 (≈ 37.2 µM) | 0.01 (≈ 0.0116 µM) | 5 (≈ 0.00581 µM) |  | 
4 | 4-[4-(2,2-Diethoxyethyl)-piperazinyl]-imidazolo[4,5-c]-rifamycin SV [Verbindung 66] | 16 | 16 | 16 | 16 | 32 | 128 | 0.01 | 0.01 |  |  |  |  |  |  |  |  |  | 
5 | COC(CN(C)c1nc2c([nH]1)c1c(O)c3c(O)c(C)c4c(c32)C(=O)[C@@](C)(O/C=C/[C@H](OC)[C@@H](C)[C@@H](OC(C)=O)[C@H](C)[C@H](O)[C@H](C)[C@@H](O)[C@@H](C)/C=C/C=C(/C)C(=O)N1)O4)OC [Verbindung 15, 4-[N-(2,2-Dimethoxyethyl)-N-methylamino]-imidazolo[4,5-c]-rifamycin SV] |  |  |  |  |  |  |  |  | 8 (≈ 9.54 µM) | 8 (≈ 9.54 µM) | 8 (≈ 9.54 µM) | 4 (≈ 4.77 µM) | 16 (≈ 19.1 µM) | 32 (≈ 38.1 µM) | 0.005 (≈ 0.00596 µM) | 5 (≈ 0.00596 µM) |  | 
6 | 3-Thiomorpholinylmethylenamino-Rifamycin S [Verbindung 87] |  |  |  |  |  |  |  |  |  |  |  |  |  |  |  |  | deutliche Hemmwirkung | wirksam hemmen
7 | 4-[4-(2-Dimethylaminoethyl)-piperazinyl-imidazolo[4,5-cl- rifamycin SV [Verbindung 69] | 32 | 32 | 32 | 32 | 128 | 128 | 0.05 | 0.05 |  |  |  |  |  |  |  |  |  | 
8 | 4-(4-Ethoxycarbonylpiperazinyl)-imidazolo[4,5-c]rifamycin SV [Verbindung 67] | 16 | 16 | 16 | 16 | 32 | 64 | 0.005 | 0.005 |  |  |  |  |  |  |  |  |  | 
9 | CO[C@H]1/C=C/O[C@@]2(C)Oc3c(C)c(O)c4c(O)c(c5[nH]c(N6CCC(N(C)C)CC6)nc5c4c3C2=O)NC(=O)/C(C)=C\C=C\[C@H](C)[C@H](O)[C@@H](C)[C@@H](O)[C@@H](C)[C@H](OC(C)=O)[C@@H]1C [Verbindung 23, 4-(4-Dimethylamino-l-piperidyl)-imidazolo[4,5-c]rifamycin SV] |  |  |  |  |  |  |  |  | 8 (≈ 9.43 µM) | 16 (≈ 18.9 µM) | 16 (≈ 18.9 µM) | 16 (≈ 18.9 µM) | 16 (≈ 18.9 µM) | 16 (≈ 18.9 µM) | 0.1 (≈ 0.118 µM) | 100 (≈ 0.118 µM) |  | 
10 | 3-(4-Methylpiperazinyl)-methylenamino-Rifamycin S [Verbindung 88] |  |  |  |  |  |  |  |  |  |  |  |  |  |  |  |  | deutliche Hemmwirkung | wirksam hemmen
